From PubChem BioAssay (NCI) come the findings set out here.

Test systems include SF-539 CNS; SK-MEL-5 melanoma; SNB-75 CNS; OVCAR-4 ovarian; NCI-H522 lung; M14 melanoma; ACHN renal; HCT-116 colon; UACC-257 melanoma; SK-MEL-2 melanoma; NCI/ADR-RES ovarian; DMS 273 small cell lung.
Common to all, as to test: NCI-60 cell line screen, 48 h

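1) Cells in 96-well plates. 2) Compound, 48 h, 5 concentrations. 3) Linear interpolation between surrounding doses. 4) Unreached endpoint = highest concentration. The concentration for 50% growth inhibition is given as GI50. The concentration for full growth arrest is given as TGI.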

As for `C/C(=C1/N=C(c2cc([N+](=O)[O-])ccc2Cl)N(C2=CC=C(Cl)CC2)C1=O)c1cc2ccccc2oc1=O`, the TGI in the experiment on SF-539 CNS, with SK-MEL-5 melanoma, with SNB-75 CNS, in the experiment on OVCAR-4 ovarian, in the experiment with NCI-H522 lung and with M14 melanoma was more than 100 µM each time. The TGI in the experiment on ACHN renal, in the experiment on HCT-116 colon and with UACC-257 melanoma was more than 100 µM in each case.

With `CCCCN(CCCC)c1ccc(N=Nc2ccc(S(=O)(=O)O)cc2)cc1`, the TGI in the experiment with SF-539 CNS is 33.4 µM; in the experiment with SK-MEL-5 melanoma, 43.4 µM; in the experiment on SK-MEL-2 melanoma, more than 100 µM; in the experiment with NCI/ADR-RES ovarian, 70.9 µM; in the experiment on SNB-75 CNS it was 39.2 µM; in the experiment on OVCAR-4 ovarian, 74.7 µM. Further, the TGI was more than 100 µM in the experiment with M14 melanoma, more than 100 µM in the experiment with ACHN renal, 29.4 µM in the experiment on HCT-116 colon and more than 100 µM in the experiment with UACC-257 melanoma.

For `CC1=CC[C@H](C)C(C)(C)C1/C=C/C(C)=C/CC[C@@]1(CO)[C@H](CCCO)/C(=C(/C)C=O)CC[C@]1(C)O` (some centres not stated), the TGI with SF-539 CNS was 20.8 µM; in the experiment on SK-MEL-5 melanoma, 4.26 µM; with DMS 273 small cell lung, 13.9 µM; in the experiment on SK-MEL-2 melanoma, 29.5 µM; in the experiment on NCI-H522 lung it was 11.3 µM; in the experiment on M14 melanoma, 12.3 µM. For the same compound, the TGI came out at 16.6 µM with ACHN renal and 28.8 µM in the experiment with UACC-257 melanoma.

For `CC(=O)/C=C/c1c[nH]c(=O)[nH]c1=O`, the TGI in the experiment with SF-539 CNS is 601 µM; in the experiment on SK-MEL-5 melanoma, 574 µM; with DMS 273 small cell lung it was 324 µM; in the experiment on SK-MEL-2 melanoma, 444 µM; in the experiment with NCI/ADR-RES ovarian it was 781 µM; with SNB-75 CNS it was 681 µM. Also, the TGI in the experiment on OVCAR-4 ovarian amounted to 883 µM; with NCI-H522 lung, 295 µM; in the experiment with HCT-116 colon, 388 µM; with UACC-257 melanoma, 641 µM.

With `Cc1cc(S(N)(=O)=O)c(S/C(=N\Nc2ccc([N+](=O)[O-])cc2)c2ccc(Cl)cc2)cc1Cl`, the TGI in the experiment with SF-539 CNS came out at 4.19 µM; with SK-MEL-5 melanoma, 33.3 µM; with SK-MEL-2 melanoma, 9.58 µM; with SNB-75 CNS, 4.01 µM; in the experiment with OVCAR-4 ovarian, 4.48 µM; in the experiment on NCI-H522 lung it was 11.5 µM. Also, the TGI is more than 100 µM in the experiment with M14 melanoma, 10.4 µM in the experiment on ACHN renal, more than 100 µM in the experiment with HCT-116 colon and 8.7 µM in the experiment on UACC-257 melanoma.

As to `O=C(COC(=O)c1ccccc1)c1ccc(Br)cc1`, the TGI was 28.4 µM with SF-539 CNS; 27.5 µM with SK-MEL-5 melanoma; 28.2 µM in the experiment with SK-MEL-2 melanoma; 61.9 µM in the experiment with NCI/ADR-RES ovarian; 29.9 µM in the experiment on SNB-75 CNS; 31 µM with M14 melanoma. For the same compound, the TGI in the experiment with ACHN renal worked out at 65.9 µM; in the experiment on HCT-116 colon it was 30.2 µM; in the experiment on UACC-257 melanoma, 28.8 µM.

For the compound `COc1cc2cnc3c(c2cc1OC)Cc1cc2c(cc1-3)OCO2`, the GI50 in the experiment on SF-539 CNS is less than 0.0132 µM; in the experiment on SK-MEL-5 melanoma it was less than 0.01 µM; in the experiment on NCI/ADR-RES ovarian it was less than 0.01 µM; in the experiment on SNB-75 CNS, 0.0109 µM; in the experiment with OVCAR-4 ovarian, 13.6 µM; in the experiment on NCI-H522 lung, less than 0.01 µM. Moreover, the GI50 in the experiment on M14 melanoma was less than 0.0113 µM; with ACHN renal it was less than 0.0143 µM. Further, the TGI in the experiment on SF-539 CNS was 31.8 µM; in the experiment with SK-MEL-5 melanoma it was 5.39 µM; in the experiment with NCI/ADR-RES ovarian, more than 81.5 µM; in the experiment on SNB-75 CNS, more than 49.3 µM; with OVCAR-4 ovarian, more than 62.8 µM; in the experiment with M14 melanoma, more than 100 µM. Further, the values for the TGI in the experiment on ACHN renal and in the experiment with HCT-116 colon were 19.4 µM and more than 50.3 µM, respectively.

Turning to `O=S(=O)(O)c1ccc(N=Nc2ccc(N=Nc3ccc(/C=C/c4ccc(N=[N+]([O-])c5ccc(/C=C/c6ccc(N=Nc7ccc(N=Nc8ccc(S(=O)(=O)O)cc8)c8ccccc78)cc6S(=O)(=O)O)c(S(=O)(=O)O)c5)cc4S(=O)(=O)O)c(S(=O)(=O)O)c3)c3ccccc23)cc1`, the TGI in the experiment on SF-539 CNS, with SK-MEL-5 melanoma, in the experiment with DMS 273 small cell lung, in the experiment with SK-MEL-2 melanoma, in the experiment on NCI/ADR-RES ovarian and with SNB-75 CNS was more than 100 µM throughout. Moreover, the TGI in the experiment with OVCAR-4 ovarian is more than 100 µM; in the experiment with NCI-H522 lung, 99.7 µM; in the experiment on HCT-116 colon, more than 100 µM; with UACC-257 melanoma it was more than 100 µM.

Regarding `Nc1ccccc1Sc1ccc(Cl)cc1`, the TGI was more than 100 µM in the experiment on SF-539 CNS; 32 µM in the experiment with SK-MEL-5 melanoma; 72.5 µM in the experiment with DMS 273 small cell lung; 87.8 µM with SK-MEL-2 melanoma; 88.9 µM with SNB-75 CNS; more than 100 µM with OVCAR-4 ovarian. Further, the TGI in the experiment with M14 melanoma is more than 100 µM; with ACHN renal, 99.2 µM; in the experiment with HCT-116 colon it was more than 100 µM; in the experiment on UACC-257 melanoma, 54.1 µM.

With `COc1cccc(NC(=O)N/C(=C/c2ccc(N(CCC#N)CCC#N)cc2)NC(=O)c2cc([N+](=O)[O-])ccc2Cl)c1`, the TGI in the experiment on SF-539 CNS, in the experiment on SK-MEL-5 melanoma, in the experiment with DMS 273 small cell lung, in the experiment with SK-MEL-2 melanoma, in the experiment on OVCAR-4 ovarian and with NCI-H522 lung was more than 100 µM each time. For the same compound, the TGI with ACHN renal and in the experiment on HCT-116 colon was more than 100 µM throughout.

For `CNC=O`, the TGI in the experiment with SF-539 CNS, in the experiment with SK-MEL-5 melanoma, in the experiment on DMS 273 small cell lung, in the experiment with SK-MEL-2 melanoma, in the experiment on NCI/ADR-RES ovarian and in the experiment with SNB-75 CNS was more than 10000 µM in each case. For the same compound, the TGI with OVCAR-4 ovarian, with NCI-H522 lung, in the experiment with M14 melanoma, in the experiment with ACHN renal, in the experiment on HCT-116 colon and in the experiment on UACC-257 melanoma was more than 10000 µM throughout.
